18 compounds from patent publication US10472341B2, “Bicyclic tetrahydrothiazepine derivatives useful for the treatment of neoplastic and/or infectious diseases” (APEIRON BIOLOGICS AG, priority 2015, dated 2019) can be followed below.

Counter-ions that a name gives are not always drawn. Like-named read-outs stand apart in the source and are kept apart here.

What all share (assay type): cell-based
One assay concerns CD4 T cells. The experiment in a line: CD69 expression on aCD3/aCD28 stimulated isolated human CD4 T cells (flow cytometry). To be noted: 24 h after TCR stimulation, read-out: Activity Class CD69 (CD4). How it is done: (§1) Isolated T cells were plated in Xvivo medium at 1.5*10 ^5 cells per in 96 well culture plates and TCR-stimulated with anti-CD3/28 mAbs in the presence of compound as indicated. Cytokine production was determined at 24 h or 48 h following TCR stimulation in cell culture supernatants using commercially available ELISA kits (BD and eBioscience) as recommended by the manufacturer. T cell proliferation and CD25 expression (CD25-PC5 reagent purchased from Beckman Coulter) was determined by flow cytometry (Beckman-Coulter FC500) and analysed with Kaluza Software. For measurement of CD69 expression, isolated CD4 and CD8 T cells were plated in Xvivo medium at […] per in 96 well culture plates and TCR-stimulated with anti-CD3/28 mAbs in the presence of compound. CD69 expression was determined at 24 h following TCR stimulation by flow cytometry (CD4eF450, CD8APCeF780 and CD69-PC7 reagent purchased from eBioscience) and analysed with Kaluza Software.
(§2) For measurement of CD69 expression, isolated CD4 and CD8 T cells were plated in Xvivo medium at 80000 cells per in 96 well culture plates and TCR-stimulated with anti-CD3/28 mAbs in the presence of compound. CD69 expression was determined at 24 h following TCR stimulation by flow cytometry (CD4eF450, CD8APCeF780 and CD69-PC7 reagent purchased from eBioscience) and analysed with Kaluza Software.

Assay [1] relates to aCD3/aCD28-stimulated human PBMCs. Kind of assay: Cytokine production in aCD3/aCD28 stimulated human PBMCs. To be noted: PBMC, 18 h. In a few lines:
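Ficoll-isolated human PBMCs at 1e6 cells/mL in X-Vivo15, stimulated with soluble anti-CD3/CD28 (OKT3 and 28.2, 1 μg/mL each) plus compound for 18 h at 37° C. Supernatant cytokines quantified by MSD or HTRF.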

The next assay deals with CD8 T cells. The experiment in a line: CD69 expression on aCD3/aCD28 stimulated isolated human CD8 T cells (flow cytometry). The settings on record: T-cell, 24 h after TCR stimulation, read-out: Activity Class CD69 (CD8). As for the experimental part: as §1, §2
[2] abbreviates: enhancement of IFN-γ production, read-out: Activity Class IFN-γ.
Where [3] appears, read: enhancement of IL-2 production, read-out: Activity Class IL-2.

For the compound `COc1ccc(CN2C(=O)[C@@H](N)CS(=O)(=O)c3cc(F)c(C(=O)NCC4CCOCC4)cc32)cc1` [Example 142, (3R)-3-amino-8-fluoro-5-[(4-methoxyphenyl)methyl]-N-[(oxan-4-yl)methyl]-1,1,4-trioxo-2,3,4,5-tetrahydro-1λ^6,5-benzothiazepine-7-carboxamide], the EC50 in the assay on CD4 T cells was above 5010 nM; in assay [1] (setting [2]), 1580 to 5010 nM; in assay [1] (setting [3]) it was 1580 to 5010 nM; with CD8 T cells, above 5010 nM.
For `N[C@H]1CS(=O)(=O)c2cc(Cl)c(C(=O)NCCCC(F)(F)F)cc2N(Cc2ccc(Cl)cc2)C1=O` [Example 163, (3R)-3-amino-8-chloro-5-[(4-chlorophenyl)methyl]-1,1,4-trioxo-N-(4,4,4-trifluorobutyl)-2,3,4,5-tetrahydro-1λ^6,5-benzothiazepine-7-carboxamide], the EC50 is below 1580 nM in the assay with CD4 T cells, below 1580 nM in assay [1] (setting [2]), 1580 to 5010 nM in assay [1] (setting [3]) and below 1580 nM in the assay on CD8 T cells.
`N[C@H]1CS(=O)(=O)c2cc(F)c(C(=O)NCc3ccccc3)cc2N(Cc2ccc(F)cc2)C1=O` [Example 134, (3R)-3-amino-N-benzyl-8-fluoro-5-[(4-fluorophenyl)methyl]-1,1,4-trioxo-2,3,4,5-tetrahydro-1λ^6,5-benzothiazepine-7-carboxamide hydrochloride]: the EC50 (in the assay with CD4 T cells; in assay [1] (setting [2]); in assay [1] (setting [3]); in the assay with CD8 T cells) was below 1580 nM each time.
For `COc1ccc(CN2C(=O)[C@@H](N)CS(=O)(=O)c3ccc(C(=O)NCCCC(F)(F)F)cc32)cc1` [Example 150, (3R)-3-amino-5-[(4-methoxyphenyl)methyl]-1,1,4-trioxo-N-(4,4,4-trifluorobutyl)-2,3,4,5-tetrahydro-1λ^6,5-benzothiazepine-7-carboxamide], the EC50 in the assay with CD4 T cells was above 5010 nM; in assay [1] (setting [2]), 1580 to 5010 nM; in assay [1] (setting [3]) it was 1580 to 5010 nM; with CD8 T cells, above 5010 nM.
`N[C@H]1C[S@+]([O-])c2cc(F)c(C(=O)NCCCC(F)(F)F)cc2N(Cc2ccc(Cl)cc2)C1=O` (single isomer, unassigned) [Example 122, hydrochloride]: the EC50 in the assay with CD4 T cells is 1580 to 5010 nM; in assay [1] (setting [2]) it was below 1580 nM; in assay [1] (setting [3]), 1580 to 5010 nM; in the assay on CD8 T cells, 1580 to 5010 nM.
Consider `N[C@H]1CS(=O)(=O)c2ccc(C(=O)NCCC(F)(F)F)cc2N(Cc2ccc(Cl)cc2)C1=O` [Example 155, (3R)-3-amino-5-[(4-chlorophenyl)methyl]-1,1,4-trioxo-N-(3,3,3-trifluoropropyl)-2,3,4,5-tetrahydro-1λ^6,5-benzothiazepine-7-carboxamide], for which the EC50 in the assay with CD4 T cells was below 1580 nM; in assay [1] (setting [2]) it was 1580 to 5010 nM; in assay [1] (setting [3]), 1580 to 5010 nM; with CD8 T cells, below 1580 nM.
Take `N#Cc1ccc(CN2C(=O)[C@@H](N)CS(=O)(=O)c3cc(F)c(C(=O)NCCCC(F)(F)F)cc32)cc1` [Example 125, (3R)-3-amino-5-[(4-cyanophenyl)methyl]-8-fluoro-1,1,4-trioxo-N-(4,4,4-trifluorobutyl)-2,3,4,5-tetrahydro-1λ^6,5-benzothiazepine-7-carboxamide hydrochloride]: the EC50 with CD4 T cells was 1580 to 5010 nM; in assay [1] (setting [2]), below 1580 nM; in assay [1] (setting [3]), 1580 to 5010 nM; in the assay on CD8 T cells, 1580 to 5010 nM.
Turning to `N[C@H]1CS(=O)(=O)c2ccc(C(=O)N[C@@H]3CC3(F)F)cc2N(Cc2ccc(C(F)(F)F)cc2)C1=O` [Example 179, (3R)-3-amino-N-[(1R)-2,2-difluorocyclopropyl]-1,1,4-trioxo-5-{[4-(trifluoromethyl)phenyl]methyl}-2,3,4,5-tetrahydro-1λ^6,5-benzothiazepine-7-carboxamide], the EC50 is below 1580 nM with CD4 T cells, 1580 to 5010 nM in assay [1] (setting [2]), below 1580 nM in assay [1] (setting [3]) and below 1580 nM in the assay on CD8 T cells.
Turning to `COc1ccc(CN2C(=O)[C@@H](N)CS(=O)(=O)c3cc(F)c(C(=O)NC4CC4(F)F)cc32)cc1` (stereo partly drawn) [Example 143, (3R)-3-amino-N-(2,2-difluorocyclopropyl)-8-fluoro-5-[(4-methoxyphenyl)methyl]-1,1,4-trioxo-2,3,4,5-tetrahydro-1λ^6,5-benzothiazepine-7-carboxamide], the EC50 is 1580 to 5010 nM in the assay on CD4 T cells, 1580 to 5010 nM in assay [1] (setting [2]), 1580 to 5010 nM in assay [1] (setting [3]) and above 5010 nM in the assay on CD8 T cells.
For the compound `N[C@H]1CS(=O)(=O)c2ccc(C(=O)N[C@@H]3CCC(F)(F)C3)cc2N(Cc2ccc(Cl)cc2)C1=O` [Example 169, (3R)-3-amino-5-[(4-chlorophenyl)methyl]-N-[(1R)-3,3-difluorocyclopentyl]-1,1,4-trioxo-2,3,4,5-tetrahydro-1λ^6,5-benzothiazepine-7-carboxamide], the EC50 (in the assay on CD4 T cells; in assay [1] (setting [2]); in assay [1] (setting [3]); with CD8 T cells) was below 1580 nM in each case.
Regarding `CCCCNC(=O)c1cc2c(cc1F)SC[C@H](N)C(=O)N2Cc1ccc(F)cc1` [Example 131, (3R)-3-amino-N-butyl-8-fluoro-5-[(4-fluorophenyl)methyl]-4-oxo-2,3,4,5-tetrahydro-1,5-benzothiazepine-7-carboxamide hydrochloride], the EC50 in the assay on CD4 T cells is above 5010 nM; in assay [1] (setting [2]), 1580 to 5010 nM; in assay [1] (setting [3]) it was above 5010 nM; in the assay with CD8 T cells it was above 5010 nM.
As for `CCCCNC(=O)c1cc2c(cc1F)S(=O)(=O)C[C@H](N)C(=O)N2Cc1ccc(F)cc1` [Example 133, (3R)-3-amino-N-butyl-8-fluoro-5-[(4-fluorophenyl)methyl]-1,1,4-trioxo-2,3,4,5-tetrahydro-1λ^6,5-benzothiazepine-7-carboxamide hydrochloride], the EC50 with CD4 T cells is below 1580 nM; in assay [1] (setting [2]), below 1580 nM; in assay [1] (setting [3]), 1580 to 5010 nM; in the assay with CD8 T cells, below 1580 nM.
As to `N[C@H]1CS(=O)(=O)c2ccc(C(=O)NCCN3CCOCC3)cc2N(Cc2ccc(Cl)cc2)C1=O` [Example 176, (3R)-3-amino-5-[(4-chlorophenyl)methyl]-N-[2-(morpholin-4-yl)ethyl]-1,1,4-trioxo-2,3,4,5-tetrahydro-1λ^6,5-benzothiazepine-7-carboxamide], the EC50 (with CD4 T cells; in assay [1] (setting [2]); in assay [1] (setting [3]); in the assay on CD8 T cells) was above 5010 nM in each case.
Take `N[C@H]1CS(=O)(=O)c2cc(F)c(C(=O)NC3CC3C(F)(F)F)cc2N(Cc2ccc(Cl)cc2)C1=O` (stereo partly drawn) [Example 127, (3R)-3-amino-5-[(4-chlorophenyl)methyl]-8-fluoro-1,1,4-trioxo-N-[2-(trifluoromethyl)cyclopropyl]-2,3,4,5-tetrahydro-1λ^6,5-benzothiazepine-7-carboxamide hydrochloride]: the EC50 was below 1580 nM in the assay with CD4 T cells, below 1580 nM in assay [1] (setting [2]), 1580 to 5010 nM in assay [1] (setting [3]) and below 1580 nM in the assay on CD8 T cells.
For the compound `N[C@H]1CS(=O)(=O)c2cc(F)c(C(=O)NCCCC(F)(F)F)cc2N(Cc2ccccc2)C1=O` [Example 136, (3R)-3-amino-5-benzyl-8-fluoro-1,1,4-trioxo-N-(4,4,4-trifluorobutyl)-2,3,4,5-tetrahydro-1λ^6,5-benzothiazepine-7-carboxamide hydrochloride], the EC50 (in the assay on CD4 T cells; in assay [1] (setting [2]); in assay [1] (setting [3]); in the assay on CD8 T cells) was below 1580 nM each time.
As for `COc1ccc(CN2C(=O)[C@@H](N)CS(=O)(=O)c3ccc(C(=O)NC4CCC(F)(F)CC4)cc32)cc1` [Example 154, (3R)-3-amino-N-(4,4-difluorocyclohexyl)-5-[(4-methoxyphenyl)methyl]-1,1,4-trioxo-2,3,4,5-tetrahydro-1λ^6,5-benzothiazepine-7-carboxamide], the EC50 in the assay on CD4 T cells was 1580 to 5010 nM; in assay [1] (setting [2]), 1580 to 5010 nM; in assay [1] (setting [3]), above 5010 nM; in the assay on CD8 T cells, below 1580 nM.
For the compound `Cl.N[C@H]1CS(=O)(=O)c2cc(F)c(C(=O)N[C@H]3CC3(F)F)cc2N(Cc2ccc(Cl)cc2)C1=O` (single isomer, unassigned) [Example 107, hydrochloride], the EC50 (with CD4 T cells; in assay [1] (setting [2]); in assay [1] (setting [3]); in the assay with CD8 T cells) was below 1580 nM throughout.
As to `COc1ccc(CN2C(=O)[C@@H](N)CS(=O)(=O)c3cc(F)c(C(=O)NCCCC(F)(F)F)cc32)cc1` [Example 141, (3R)-3-amino-8-fluoro-5-[(4-methoxyphenyl)methyl]-1,1,4-trioxo-N-(4,4,4-trifluorobutyl)-2,3,4,5-tetrahydro-1λ^6,5-benzothiazepine-7-carboxamide], the EC50 (in the assay on CD4 T cells; in assay [1] (setting [2]); in assay [1] (setting [3]); in the assay with CD8 T cells) was below 1580 nM each time.
